The values that follow come from patent publication US20070078177A1, “METHODS AND COMPOSITIONS FOR TREATING NON AGE RELATED HEARING IMPAIRMENT IN A SUBJECT” (WASHINGTON UNIVERSITY IN ST. LOUIS, priority 2005, published 2007).

Data set [1] has as its system noise-induced hearing loss (NIHL). In words: Therapeutic function on noise-induced hearing loss: ABR thresholds, drug in drinking water right after noise exposure.
In data set [2] the test system is outer hair cells (OHCs), inner hair cells (IHCs), and spiral ganglion neurons (SGNs). Kind of data set: Cochlear histology after noise exposure: counting of IHCs, OHCs and SGNs, cytocochleograms. The note with it: for number (density) of SGNs, control vs drug-treated mice: apex, middle and base regions, male mice at 3 months, drug after noise, FIG. 6B (trimethadione), FIG. 7 (ethosuximide); for gross morphological changes in mid-modiolar sections, control vs drug-treated mice: drug after noise exposure. The data set is classed as in vivo, C57BL/6J mice. The source says:
The methods for fixing, processing and analyzing the mouse cochlea have been described in detail elsewhere (Ohlemiller et al., 2000; Ou et al., 2000). Briefly, mice were perfused transcardially with cold 2% paraformaldehyde and 2% glutaraldehyde in 0.1 M phosphate buffer. Both cochleae were isolated, the stapes removed, and immersed in the same fixative. Complete exposure of the cochlea to the fixative was ensured by making a small hole at the apex of the cochlear capsule, gently circulating the fixative over the cochlea using a transfer pipet. After decalcification in sodium EDTA, the cochleae were post-fixed in buffered 1% osmium tetroxide, dehydrated in an ascending acetone series, and embedded in Epon. For SGN counting, mid-modiolar sections (4 μm) were cut and about fifty sections were collected for each cochlea. The number of SGN nuclei at the apex, middle, and base was counted every fifth section (total 10 sections per one cochlea) under a 200× visual field using a computerized planimetry program of Image Pro Plus (Media Cybernetics). Because all sections were cut in a similar orientation, it was possible to evaluate comparisons between two groups by Mann-Whitney tests. For hair cell counting, cochleae were dissected into roughly half-turn segments. These half-turn segments were examined in mineral oil under Nomarski optics, using a calibrated ocular. Three separate inner hair cell (IHC) and outer hair cell (OHC) counts were obtained from non-overlapping 100 μm segments. Cytocochleogrames were prepared for one pair of mice with the best prophylactic function of trimethadione. The percentages of missing IHCs and OHCs were determined by dividing the number of missing hair cells by the total number of hair cells (i.e. present plus absent) in the organ of Corti.

In data set [3] the test system is noise-induced hearing loss (NIHL). Kind of data set: Prophylactic function on noise-induced hearing loss: ABR thresholds, drug in drinking water before noise exposure. The note with it: for ABR threshold shift prevented, PTS: Drug-Noise-2w; for ABR threshold shift prevented, PTS / ABR threshold shift prevented, TTS: P<0.01; for ABR threshold shift prevented, TTS: Drug-Noise-24h.

For data set [4] the following is noted: stated as reason for selecting TMO; cited from earlier work.
Where [5] appears, read: both male and female mice, 3 months old, drug in drinking water two weeks before noise, one-way ANOVA p<0.05, FIG. 5.
Setting [6] is: female mice, across five tested frequencies, FIG. 5B.
Where [7] appears, read: male mice, five tested frequencies from 5 to 40K, FIG. 5A.

Each structure is given as a SMILES string. Entries after “also recorded” stand apart in the source; their conditions may differ.

For the compound `CN1C(=O)OC(C)(C)C1=O` [trimethadione], the “ABR threshold shift, TTS, vs control” value in data set [1] (female mice (n=4), 24 h after noise, drug right after noise, FIG. 3B) is on record as “no significant difference”. In addition, the “ABR threshold shift, PTS, vs control” value is reported as “no statistical difference” in data set [1] (female mice (n=4), two weeks after noise, drug right after noise, FIG. 3B) and “significantly less; also recorded: significant protection” in data set [1] (male mice (n=3), two weeks after noise, drug right after noise, P<0.01). Moreover, the “protection from NIHL, TTS” value in data set [1] (male mice (n=3), 3 months old, drug in drinking water right after noise, one-way ANOVA p<0.05, FIG. 3A) is given as “significant protection”; in data set [3] (setting [5]) it was “significant protection”. For the same compound, the “less ABR threshold shift than controls, TTS” value in data set [1] (male mice, 24 h after noise, drug in drinking water right after noise, across all five frequencies, P<0.05, FIG. 3A) is “about 10 dB”. The “pre-exposure ABR thresholds (Pre-Noise-Only vs Pre-Noise-Drug)” value in data set [1] (male or female mice, 3 months old, FIGS. 3A and 3B) is reported as “no significant difference”. For the same compound, the “loss of IHCs” value in data set [2] (apex region (0 to 8 kHz), single treated mouse of the pair, control 0.3%) is recorded as roughly 1.9%. Moreover, the “loss of OHCs” value in data set [2] (apex region (0 to 8 kHz), single treated mouse of the pair, control 4.6%) is on record as roughly 3.5%. For the same compound, the “number (density) of SGNs, control vs drug-treated mice” value in data set [2] is on record as “no difference; also recorded: not significantly different”. Also, in data set [2] (base region (32 kHz to 64 kHz), single treated mouse of the pair, control 22.2%, FIG. 8), the “missing IHCs” value is recorded as “about 1.8%”. Moreover, the “missing OHCs” value in data set [2] (base region (32 kHz to 64 kHz), single treated mouse of the pair, control 74.4%, FIG. 8) is listed as roughly 68.8%. Moreover, the “gross morphological changes in mid-modiolar sections, control vs drug-treated mice” value in data set [2] is recorded as “No obvious gross morphological changes”. Also, the “morphological differences among groups” value in data set [2] (groups testing the prophylactic function) is listed as “no obvious morphological differences”. In addition, in data set [2] (hook, low base, upper base and apex of cochlea, 3-months-old male mice (n=3), FIG. 6A), the “IHC numbers, control vs drug-treated mice” value was “no significant difference”. Further, the “OHC numbers, control vs drug-treated mice” value in data set [2] (hook, low base, upper base and apex of cochlea, 3-months-old male mice (n=3), Noise-Only-2w vs Noise-Drug-2w, FIG. 6A) is given as “trend for the loss of more outer hair cells; also recorded: no significant difference”. In addition, in data set [3] (24 hours after noise (wideband, 110 dB, 30 min), TMO 200 mg/kg/day in drinking water three weeks before noise, all seven frequencies, FIG. 1B), the “temporary threshold shift (TTS) vs control” value was “significantly lower”. The “permanent threshold shift (PTS) vs control” value in data set [3] (14 days after noise (wideband, 110 dB, 30 min), TMO 200 mg/kg/day in drinking water three weeks before noise, all seven frequencies, FIG. 1C, listed as TMO) is recorded as “significantly lower”. Also, the “ABR threshold before the noise exposure vs control” value in data set [3] (TMO 200 mg/kg body weight/day in drinking water, one week after TMO treatment, n=5, 8 month-old mice, FIG. 1A) is listed as “no difference”. For the same compound, the “ABR threshold shift at the apex region” value in data set [3] (apex region (0 to 8 kHz), single treated mouse of the pair, control about 25 dB) is “no shift”. Besides, the “protection from NIHL, PTS” value in data set [3] (setting [5]) is “significant protection”. Further, the “ABR threshold shift after the noise exposure” value in data set [3] (both male and female mice, prophylactic treatment) is reported as “dramatically reduced”. Moreover, the “ABR threshold shift prevented, PTS” value in data set [3] (setting [6]) is listed as roughly 7.0 dB; in data set [3] (setting [7]) it was roughly 9.7 dB. The results for the “ABR threshold shift prevented, TTS” value in data set [3] (setting [6]) and in data set [3] (setting [7]) were “about 5.0 dB” and “about 4.3 dB”, respectively. Further, the “permanent ABR threshold shift among five frequencies tested” value in data set [3] (single treated mouse (male, 3 months) of a selected pair, drug two weeks before noise, control mouse about 35 dB, FIG. 8) was 11 dB. Moreover, in data set [3] (single treated mouse of the pair, same value in the control mouse), the “ABR threshold at 40 kHz before the noise exposure” value came out at 28 dB. In data set [4], the water solubility entry was “water soluble”.

`CCC1(C)CC(=O)NC1=O` (stereo not drawn) [ethosuximide]: in data set [1] (24 hours after noise (wideband, 110 dB, 30 min), ethosuximide 400 mg/kg/day in drinking water starting immediately after noise, FIG. 2B), the “temporary threshold shift (TTS) vs control” value was “significantly lower”. Further, in data set [1] (21 days after noise, ethosuximide 400 mg/kg/day in drinking water for three weeks starting immediately after noise, FIG. 2C), the “permanent threshold shift (PTS) vs control” value is “significantly lower”. In addition, the “ABR threshold before the noise exposure vs control” value in data set [1] (ethosuximide group vs control, n=5, 2 month-old mice, FIG. 2A) is on record as “no difference”. Besides, the “ABR threshold shift, PTS, vs control” value in data set [1] (male mice (n=5), 3 months old, ethosuximide in drinking water right after noise, P<0.01, FIG. 4) is listed as “less ABR threshold shift; also recorded: significant protection”. The “ABR threshold shift, TTS, vs control” value in data set [1] (male mice (n=5), 3 months old, ethosuximide in drinking water right after noise, P<0.05, FIG. 4) is “less ABR threshold shift; also recorded: significant protection”. Further, in data set [2], the “number (density) of SGNs, control vs drug-treated mice” value is reported as “no difference; also recorded: not significantly different” and the “gross morphological changes in mid-modiolar sections, control vs drug-treated mice” value is given as “No obvious gross morphological changes”.
